# “Also recorded” adds a separate entry of the source.
# Columns and labels:
# TH-positive neurons = assay: TH immunostaining and count of TH-positive neurons in midbrain cultures; assay type: cell-based, rat
# Experimental: (§1) Primary midbrain cultures were prepared from rat embryo ventral mesencephalon as described previously by Lin et al (1994). In brief, rostral mesencephalic tegmentum of embryonic day 16 rat embryos was collected in DMEM/F12 (Hyclone SH30023.01) containing 2 mM glutamine on ice, The tissue was treated with 0.1% trypsin in Hanks' balanced salt solution (HBSS, Gibco 14175-095) for 15 min at 37° C. and dissociated mechanically by mild trituration with a fire-polished glass pipet in growth medium plus 2% heat-inactivated fetal bovine serum (FBS). […]
# (§2) The primary antibodies were: anti-TH monoclonal (1:400, Boehringer-Mannheim); anti-GFAP polyclonal (1:200, DAKO); anti-NSE polyclonal (1:2000, Polysciences Inc.); anti-tryptophan hydroxylase polyclonal (TPH) (1:500, Eugene Tech) and anti-islet-1 monoclonal (1:100, Developmental Studies Hybridoma Bank). […] Process-bearing TH-positive cells were counted at 100× magnification in consecutive fields covering the whole 16-mm-diameter culture well. GFAP-positive cells were counted in half the culture well. NSE-positive cells were counted in 3 photographed fields.
# TH^+ neurons = assay: MPP^+ induced neurotoxicity in midbrain cultures; assay type: cell-based, rat; details: 2 μM MPP^+ for 36 h; 2.5 μM compound; control cultures lost 48%
# Experimental: FIG. 34 depicts mechanism of compound A effect in midbrain cultures. 2.5 μM compound A was added at the time of plating. (A) Compound A reduces the rate of apoptosis of TH-positive cells. *p<0.05 versus Con, Student's t test. (B) Compound A protects TH-positive cells from MPP^+ induced neurotoxicity. Cultures at DIV 4 were treated with 2 μM MPP^+ (open bars) for 36 hrs, and processed for TH staining. *p<0.05 versus corresponding cultures not treated with MPP^+ (solid bars). #p<0.05 versus corresponding cultures without Compound A, Student's t test. Data represent averages (n=3) with SD shown in error bars.
# Primary midbrain cultures were prepared from rat embryo ventral mesencephalon as described previously by Lin et al (1994). […]
# as §2, with “fields. […]” for “fields.”
# GABA-containing neurons = assay: GABA uptake assay in midbrain cultures; assay type: cell-based, rat; details: midbrain culture, DIV 8, concentration range that increased DA uptake
# Experimental: (§3) Primary midbrain cultures were prepared from rat embryo ventral mesencephalon as described previously by Lin et al (1994). In brief, rostral mesencephalic tegmentum of embryonic day 16 rat embryos was collected in DMEM/F12 (Hyclone SH30023.01) containing 2 mM glutamine on ice, The tissue was treated with 0.1% trypsin in Hanks' balanced salt solution (HBSS, Gibco 14175-095) for 15 min at 37° C. and dissociated mechanically by mild trituration with a fire-polished glass pipet in growth medium plus 2% heat-inactivated fetal bovine serum (FBS). The growth medium consisted of equal volumes of Dulbecco's minimal essential medium DMEM (Gibco 12100-046) and HAM's F12 nutrient mixture (Gibco 21700-075) supplemented with 33 mM glucose, 13 mM sodium bicarbonate, 5 mM HEPES, 2 mM glutamine, 25 μg/ml insulin, 100 μg/ml transferrin, 60 μM putrescine, 20 nM progesterone, 30 nM sodium selenite, 5 U/ml penicillin G and 5 μg/ml streptomycin. 24-well tissue culture plate was coated by adding 15 μg/ml poly-1-ornithine hydrobromide solution at 0.5 ml/well, incubated at room temperature for 1 hr. The coating solution was removed and the well washed 3 times with distilled water and one wash with HBSS. The dissociated cells were plated onto polyornithine-coated wells at 250,000-350,000 trypan blue-excluding viable cells per well in 500 μl of above medium containing 1% FBS. […]
# serotonergic neurons = assay: Serotonin (5-HT) uptake assay in midbrain cultures; assay type: cell-based, rat; details: midbrain culture, DIV 8, concentration range that increased DA uptake
# Experimental: as §3
# NSE-positive cells = assay: NSE immunostaining, total neuron count in midbrain cultures; assay type: cell-based, rat; details: 2.5 μM; DIV 0, 5 or 7; versus untreated
# Experimental: as §1, §2
# TPH^+ cells = assay: TPH immunostaining in primary hindbrain cultures; assay type: cell-based, rat; details: hindbrain culture, DIV 13
# TH^+ cells = assay: Staining for apoptotic DA neurons (TH / Hoechst 33258); assay type: cell-based, rat; details: 2.5 μM added at plating; DIV 13
# Experimental: as §1
# To measure the percent of DA neurons undergoing apoptosis after different treatments, DIV-13 cultures (which were medium changed twice on DIV 5 and 9) were first stained with an anti-TH antibody and with FITC-conjugated goat anti-mouse secondary antibody (1:200, Jackson Lab) for 1 h at room temperature to label DA neurons. […] Cells were viewed under an inverted fluorescence microscope (Olympus) equipped with appropriate filters. Healthy and apoptotic TH^+ cells TH^+ cell numbers were counted in the entire area of each well by an observer who is blinded to the treatment.
# islet-1^+ motoneurons = assay: islet-1 immunostaining, motoneuron count in midbrain cultures; assay type: cell-based, rat; details: 2.5 μM; DIV 1, 2 and 3
# Experimental: as §1, §2
# [1] = tested on: midbrain dopaminergic neurons; assay: Dopamine (DA) uptake assay in primary midbrain cultures; assay type: cell-based, rat; details: for activity at 1.25 µM: compound concentration 1.25 μM
# Experimental: Primary midbrain cultures were prepared from rat embryo ventral mesencephalon as described previously by Lin et al (1994). In brief, rostral mesencephalic tegmentum of embryonic day 16 rat embryos was collected in DMEM/F12 (Hyclone SH30023.01) containing 2 mM glutamine on ice, The tissue was treated with 0.1% trypsin in Hanks' balanced salt solution (HBSS, Gibco 14175-095) for 15 min at 37° C. and dissociated mechanically by mild trituration with a fire-polished glass pipet in growth medium plus 2% heat-inactivated fetal bovine serum (FBS). The growth medium consisted of equal volumes of Dulbecco's minimal essential medium DMEM (Gibco 12100-046) and HAM's F12 nutrient mixture (Gibco 21700-075) supplemented with 33 mM glucose, 13 mM sodium bicarbonate, 5 mM HEPES, 2 mM glutamine, 25 μg/ml insulin, 100 μg/ml transferrin, 60 μM putrescine, 20 nM progesterone, 30 nM sodium selenite, 5 U/ml penicillin G and 5 μg/ml streptomycin. 24-well tissue culture plate was coated by adding 15 μg/ml poly-1-ornithine hydrobromide solution at 0.5 ml/well, incubated at room temperature for 1 hr. The coating solution was removed and the well washed 3 times with distilled water and one wash with HBSS. The dissociated cells were plated onto polyornithine-coated wells at 250,000-350,000 trypan blue-excluding viable cells per well in 500 μl of above medium containing 1% FBS. After 3 h when most of the cells had adhered to the bottom of the well, the medium was replaced with 500 μl of fresh medium without FBS. A serial dilution of the sample to be assayed for trophic activity was added to each well in duplicate at the time of medium change or within 24 h thereafter. Unless otherwise stated, cultures were incubated at 37° C. without any further medium change up to 7 days. Primary hindbrain cultures were prepared as described for the midbrain cultures except that the rostral raphe region (instead of the rostral mesencephalon) was dissected and trypsinized for 20 (instead of 15) min.
# [^3H]DA uptake was measured in cultures at day 7, and all the solutions were maintained at 37° C. The growth medium was removed, and the cultures were rinsed twice with 0.25 ml of uptake buffer, which consists of HBSS (Gibco 11201-092) supplemented with 28 mM glucose, 15 mM HEPES, 1 mM ascorbic acid (an antioxidant), and […] pargyline (a monoamine oxidase inhibitor). The cultures were then incubated with 0.25 ml of fresh uptake buffer containing 50 nM [^3H]DA (NEN/DuPont) for 20 min at 37° C. [^3H]DA uptake was stopped by removing the incubation mixture, and cells were then washed twice with 0.5 ml of the uptake buffer at room temperature. To release [^3H]DA from the cells, the cultures were lysed with 0.2 ml of 0.1 N NaOH for 1 h at room temperature, the lysate was then added to 1 ml of Microscint-20 (Packard 6013621), and counted for radioactivity in a microplate scintillation counter (Packard TopCount, NXT). Background values were obtained by adding to the uptake buffer 0.5 mM GBR-12909, a specific inhibitor of the high-affinity uptake pump of the dopaminergic neurons, and were usually <5% of the ^3H uptake in untreated control cultures. Forskolin (Fk, 25 μM) was employed as a positive control.
# [2] = tested on: serotonergic neurons of hindbrain culture; assay: Serotonin (5-HT) uptake assay in primary hindbrain cultures; assay type: cell-based, rat
# GFAP-positive cells = assay: GFAP immunostaining, astrocyte count in midbrain cultures; assay type: cell-based, rat; details: midbrain culture, DIV 7
# Experimental: as §1, §2
# [3] = tested on: midbrain dopaminergic neurons; details: Lin et al. 1993, 1994; cited from earlier work
# [4] = Rattus norvegicus, Neuron, midbrain culture, read-out: DA uptake % of control
molecule,measurement,setting,value
O=C(/C=C/c1ccccc1Cl)Nc1ccc(S(=O)(=O)Nc2nccs2)cc1 [Compound A],number of TH positive neurons (dopaminergic neuron survival),"TH-positive neurons; 2.5-5 μM added once at the time of plating, day 7 or day 12",promotes survival of TH^+ neurons; also recorded: about twice as many DA neurons
same,tyrosine hydroxylase (TH) immunoreactivity,TH-positive neurons; mesencephalic cultures,upregulated
same,loss of TH^+ neurons after MPP^+,TH^+ neurons,20%
same,GABA uptake,GABA-containing neurons,does not lead to an increase in GABA or 5-HT uptake; also recorded: Neither GABA (FIG. 33C) nor serotonin (FIG. 33D) uptake was significantly affected
same,GABA uptake,GABA-containing neurons; listed as CUR-162590,"little, if any, effect"
same,serotonin (5-HT) uptake,serotonergic neurons,does not lead to an increase in GABA or 5-HT uptake; also recorded: Neither GABA (FIG. 33C) nor serotonin (FIG. 33D) uptake was significantly affected
same,serotonin (5-HT) uptake,serotonergic neurons; listed as CUR-162590,"little, if any, effect"
same,NSE-positive cell numbers,NSE-positive cells,does not increase total number of NSE^+ cells; also recorded: indistinguishable from the non-treated control wells
same,survival / number of TPH^+ neurons,TPH^+ cells,does not change either the number of TPH^+ cells nor the amount of serotonin uptake in hindbrain cultures; also recorded: did not promote the survival of neurons immunoreactive for the key serotonin-synthesizing enzyme TPH
same,reduction of the rate of apoptosis of TH^+ cells,TH^+ cells,about 50%
same,number of islet-1^+ motoneurons,islet-1^+ motoneurons,115-150 % of control
same,DA uptake on conjoint treatment with GDNF,[1]; 2.5 μM compound A added to a maximally effective concentration of GDNF,additive effect; also recorded: increased DA uptake above that reached by either GDNF or compound A alone; also recorded: at least as potent as that of forskolin
same,activity at 2.5 µM,"[1]; Rattus norvegicus, Neuron, compound concentration 2.5 μM, midbrain culture, read-out: DA uptake % of control",240%
same,Emax,"[1]; Rattus norvegicus, Neuron, DIV 6, varied between different experiments, read-out: maximal stimulation of DA uptake",180 to 280%
same,concentration of maximal effect on DA uptake,"[1]; dose-dependent effect, FIG. 32A, 7 DIV",around 2.5 μM
same,concentration at which the compound was toxic and decreased DA uptake,[1]; midbrain culture,above 10 μM
same,stimulation of DA uptake (in words),"[1]; midbrain culture, 7 DIV",stimulates dopamine (DA) uptake in a dose-dependent manner
same,cytotoxicity on the hindbrain culture (inhibition of serotonin uptake),[2]; 10 μM,showed cytotoxicity on the hindbrain culture
same,serotonin uptake in hindbrain culture,"[2]; DIV 8, concentrations necessary for increasing dopamine uptake in midbrain culture",does not change either the number of TPH^+ cells nor the amount of serotonin uptake in hindbrain cultures; also recorded: nor did it increase serotonin uptake in the hindbrain culture
same,GFAP-positive cell numbers,GFAP-positive cells,does not affect GFAP^+ cell number; also recorded: not affected
O=C(/C=C/c1ccc(O)cc1)Nc1ccc(S(=O)(=O)Nc2ccccn2)cc1 [L′′′],activity at 1.25 µM,[1]; [4],130%
COc1cc(OC)cc(C(=O)Nc2ccc(S(=O)(=O)Nc3nccs3)cc2)c1 [J],activity at 20 µM,"[1]; Rattus norvegicus, Neuron, compound concentration 20 μM, midbrain culture, read-out: DA uptake % of control",150%
CCc1nnc(NS(=O)(=O)c2ccc(NC(=O)c3ccccc3F)cc2)s1 [Compound Z],activity at 10 µM,"[1]; Rattus norvegicus, Neuron, compound concentration 10 μM, midbrain culture, read-out: DA uptake % of control",150%
O=C(/C=C/c1cc(F)ccc1C(F)(F)F)Nc1ccc(S(=O)(=O)Nc2nccs2)cc1 [L″],activity at 1.25 µM,[1]; [4],375%
O=C(/C=C/c1ccc(Br)cc1)Nc1ccc(S(=O)(=O)Nc2nc[nH]n2)cc1 [X′],cytotoxicity in midbrain culture,[1]; 20 μM,no cytotoxicity
same,activity at 0.6 µM,"[1]; Rattus norvegicus, Neuron, compound concentration 0.6 μM, midbrain culture, read-out: DA uptake % of control",290%
same,EC50,"[1]; Rattus norvegicus, Neuron, midbrain culture, FIG. 36, read-out: half-maximal effective concentration (EC50) for DA uptake stimulation",~200 nM
O=C(/C=C/c1ccccc1)Nc1ccc(S(=O)(=O)Nc2nnc[nH]2)cc1 [Q′′′],activity at 5 µM,"[1]; Rattus norvegicus, Neuron, compound concentration 5 μM, midbrain culture, read-out: DA uptake % of control",170%
"GDNF: glial cell line-derived neurotrophic factor (protein, UniProt P39905 78-211, looked up) Glial cell line-derived …: SPDKQMAVLPRRERNRQAAAANPENSRGKGRRGQRGKNRGCVLTAIHLNVTDLGLGYETKEELIFRYCSGSCDAAETTYDKILKNLSRNRRLVSDKVGQACCRPIAFDDDLSFLDDNLVYHILRKHSAKRCGCI",concentration at which the effect on DA uptake plateaus,[3],around 1 ng/ml

# Reference: patent US7671077B2, “Neuroprotective small organic molecules, compositions and uses related thereto” (priority 2004, dated 2010)
